Results on ten molecules are retold here after article PMC3466213, “Discovery of Novel Orally Active Anti-Inflammatory N-Phenylpyrazolyl-N-Glycinyl-Hydrazone Derivatives That Inhibit TNF-α Production” (PLoS ONE, 2012).

Data set [1] can be described thus: Cell viability by MTT assay. It is filed as cell-based. As to conditions: mouse, murine peritoneal macrophages, vs vehicle (DMSO). How it is done:
The peritoneal macrophage were obtained and plated as described above. The cells were incubated with the vehicle or compounds for 20 hours when was added 20 µl of MTT (3-(4,5-dimethylthiazol-2-yl)-2,5-diphenyltetrazolium bromide) solution (5 mg/mL), followed by 4 hour of incubation. Then, the culture mediums were collected and the precipitates were solubilized in 200 µl of DMSO. The optical density was measured at 490 nm.
For orientation: Tetrazolium assays rely on reduction of a dye to a coloured formazan, in cell work by metabolically active cells.

Another data set relates to TNF-α production. As to the kind of experiment: LPS-induced TNF-α production in culture of mice peritoneal macrophage (ELISA). The conditions noted are these: for IC50: mouse peritoneal macrophages, at least five concentrations, range tested in parentheses, read-out: TNF-α Inhibition IC50; for inhibition at 10 µM: read-out: TNF-α Inhibition, % inhibition at 10 µM, mouse peritoneal macrophages, 10 µM, vs vehicle (DMSO), n = 3. It is filed as cell-based.

A short description of the next data set: Rat plasma stability. Type of data set: in vitro ADME. The conditions noted are these: 50 µM; for % Recovered amount after 60 min, rat plasma: 37 °C. As to the method:
The rat plasma was obtained from blood by centrifugation and diluted in phosphate buffer (pH 7.4). The test compounds were added at final concentration of 50 µM with 0.25 mL of final volume and incubated at 37°C for 60 min under agitation. At the end of the incubation time the reaction was stopped by the addition of 375 µL of MeOH and 375 µL of CH3CN. The experiments were performed in duplicate. The samples were centrifuged and filtered for HPLC-UV analysis.
(§1) The organic fraction was analyzed with the Shimadzu Prominence HPLC system (Shimadzu, Tokio, Japan) consisting of a vacuum degasser (DGU-20A5), a binary pump (LC-20AD), a autosampler (SIL-20A), UV/VIS Photodiode Array Detector (SPD-M20A) and fitted with a guard column (CLC G-ODS) and a Shimadzu (CLC-ODS, M) column (250 mm×4.6 mm i.d.) running at room temperature. Isocratic elution was performed with acetonitrile-water (40∶60 v/v), at a flow rate set at 1 mL/min. The mobile phase pH was adjusted to 8.0 with NH4OH solution. The detection was carried out at 285 nm and 330 nm wavelength for compound 4f and 4a, respectively.

Data set [2] in a line: Rat liver microsomal stability. It is filed as in vitro ADME. As to conditions: 50 µM, 37 °C, 1 mg/mL protein. As to the method: The incubation was conducted at 37°C for 60 min. The experiments contains MgCl2 (1.3 mM), NADP+ (0.4 mM), glucose-6-phosphate (3.5 mM), 0.5 U/mL glucose-6-phosphate dehydrogenase in a phosphate buffer (0.1 M, pH 7.4) containing EDTA (1.5 mM) and the test compounds were added at final concentration of 50 µM with 0.25 mL of final volume. After the pre-warming of the mixture at 37 °C, the microsomal proteins were added to give a final protein concentration of 1 mg/mL. At the end of the incubation time the reaction was stopped by the addition of 375 µL of MeOH and 375 µL of CH3CN. The experiments were performed in duplicate. The samples were centrifuged and filtered for HPLC-UV analysis.
as §1
On the technique in general: Microsomes from liver hold many membrane-bound enzymes, among them those of drug oxidation.

For another data set, the target named is p38α MAPK (Homo sapiens, UniProt Q16539). Put plainly: In vitro p38α MAPK activity inhibition (nonradioactive immunosorbent assay, ref 23). Type of data set: biochemical. As to the method:
Because the novel N-acylhydrazone derivatives 4a–g were designed based on the p38α MAPK inhibitor BIRB-796 (3), they were all evaluated for their in vitro capacity to inhibit p38α MAPK activity at a concentration of 10 µM.
*This assay was performed as described in reference 23.

The test system of data set [3] is carrageenan-induced thermal hypernociception. Put plainly: Carrageenan-induced thermal hypernociception (modified hot-plate test). As to conditions: rats, 100 µmol/kg p.o. It is filed as in vivo, rat. How it is done:
(§2) Wistar rats of both sexes (150–200g) were used. The compounds were administered orally (100 µmol.5mL-1.kg-1) as a suspension in 5% arabic gum in saline (vehicle). Control animals received an equal volume of vehicle. One hour later, the animals were injected with either 0.1 ml of 1% carrageenan solution in saline or sterile saline (NaCl 0.9%), into the subplantar surface of one of the hind paws. The thermal hypernociception was determined using the modified hot-plate test. Rats are placed individually on a hot plate with the temperature adjusted to 51°C. The latency of the withdrawal response of the left hind paw is determined at 0, 30, 60, 120, 180, and 240 min post-challenge. The time of maximum permanence permitted on the hot surface is 20 s. Hypernociception to heat is defined as a decrease in withdrawal latency and calculated as follows: Δ paw withdrawal latency (s) = (left paw withdrawal latency at time 0) – (left paw withdrawal latency at the others times).

Data set [4] in a line: Aqueous solubility in phosphate buffer (HPLC-UV). Type of data set: physicochemical. How it is done: as §1
For data set [5], the system named is TNF-α level in carrageenan-injected paws. As to the kind of experiment: TNF-α level in carrageenan-injected paws (ELISA). Type of data set: in vivo. As to conditions: rat paw, 4 h after carrageenan, 100 µmol/kg p.o. As to the method: as §2
The paw was homogenized 4 h after intraplantar injection of carrageenan, and the level of TNF-α in the supernatant was determined by ELISA.
Background: The carrageenan paw model is a standard test of acute inflammation.

Entries after “also recorded” stand apart in the source; their conditions may differ.

Sequence of p38α MAPK (Q16539 whole entry): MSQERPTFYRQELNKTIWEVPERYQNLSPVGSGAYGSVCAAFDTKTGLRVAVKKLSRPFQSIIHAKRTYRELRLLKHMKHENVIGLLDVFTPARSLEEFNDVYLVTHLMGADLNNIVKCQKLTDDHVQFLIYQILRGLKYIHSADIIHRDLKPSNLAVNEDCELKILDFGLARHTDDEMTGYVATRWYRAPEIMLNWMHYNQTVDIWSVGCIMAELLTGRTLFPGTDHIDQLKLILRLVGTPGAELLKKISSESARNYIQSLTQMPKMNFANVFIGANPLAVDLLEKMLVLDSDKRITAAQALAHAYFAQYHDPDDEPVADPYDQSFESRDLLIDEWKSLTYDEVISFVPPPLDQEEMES
Protocol for TNF-α production: BALBc mice were stimulated with thyoglicollate 3% (1 mL/mice; i.p.) and 3 days later the peritoneal cavity were washed with RPMI 1640 and the peritoneal macrophages were plated onto 96-wells plate (30.000 cells/well) for 1 hour at 37°C in an humidified 5% CO2 atmophere. Then, macrophages were incubated with the vehicle or compounds and 1 hour later stimulated with LPS (100 ng/mL) for 24 hour when the supernatants were collected to evaluate TNF-α production by ELISA kit (BD Bioscience).

On to `CC(C)(C)c1cc(NCC(=O)N/N=C/c2ccc(OCCN3CCOCC3)c3ccccc23)n(-c2ccccc2)n1` [Compound 4a, (E)-2-(3-tert-butyl-1-phenyl-1H-pyrazol-5-ylamino)-N’-((4-(2-morpholinoethoxy)naphthalen-1-yl)methylene)acetohydrazide], for which the melting point (in general, the temperature of the solid-liquid transition) is 180 °C. Further, in [1], the viability (commonly a read-out of living cells in per cent, often relative to untreated cells) at 20 h, 3 µM was 100% and the viability at 20 h, 10 µM worked out at 61.5%. Besides, in the data set on TNF-α production, the IC50 (commonly the point on the concentration scale where inhibition reaches its midpoint) came out at 3.6 µM and the inhibition (in general, the change of the read-out against control, counted positive when it falls) at 10 µM turned out to be 96.9%. For the same molecule, in “Rat plasma stability”, the “% Recovered amount after 60 min, rat plasma” value came out at 40.7%. Further, the “Resistance to plasma degradation relative to 4f” value in the data set “Rat plasma stability” (rat plasma, 60 min) is given as “about four”. Also, in data set [2], the “% Recovered amount after 60 min, rat liver microsomes” value was found to be 90.1%. Also, the inhibition at 10 µM on p38α MAPK was -5.35%. In addition, the “Anti-hypernociceptive effect (in words)” value in [3] is on record as “comparable to SB-203580; also recorded: completely inhibit the hypernociceptive response”. Moreover, the “Improvement in aqueous solubility at pH 6.4 (versus pH 7.4)” value in [4] (pH 6.4 compared with pH 7.4) was “ca. three”. Moreover, the “Improvement in solubility of 4a compared with 4f at pH 6.4” value in [4] (phosphate buffer pH 6.4, 37 °C, 24 h) was “ca. 12 times”. Also, the “Improvement in solubility of 4a compared with 4f at pH 7.4” value in data set [4] (phosphate buffer pH 7.4, 37 °C, 24 h) is listed as “ca. 5 times”. Moreover, the “Suppression of the elevation of tissue TNF-α level” value in data set [5] was 57.3%.

`CC(C)(C)c1cc(NCC(=O)N/N=C/c2ccc(O)c3ccccc23)n(-c2ccccc2)n1` [Compound 4b, (E)-2-(3-tert-butyl-1-phenyl-1H-pyrazol-5-ylamino)-N’-((4-hydroxynaphthalen-1-yl)methylene)acetohydrazide] came in with a melting point of 270 °C. In [1], this molecule returned a viability at 20 h, 3 µM of 100% and a viability at 20 h, 10 µM of 100%. Further, in the data set with TNF-α production, the IC50 was found to be 4.3 µM and the inhibition at 10 µM amounted to 75.4%. Moreover, the inhibition at 10 µM at p38α MAPK is around 30%.

`CC(C)(C)c1cc(NCC(=O)N/N=C/c2cccc3ccccc23)n(-c2ccccc2)n1` [Compound 4c, (E)-2-(3-tert-butyl-1-phenyl-1H-pyrazol-5-ylamino)-N’-(naphthalen-1-ylmethylene)acetohydrazide] returned a melting point of 140 °C. In data set [1], this molecule yielded a viability at 20 h, 3 µM of 100% and a viability at 20 h, 10 µM of 90.4%. In the data set with TNF-α production, the 50% inhibitory concentration (IC50) turned out to be 5.5 µM and the inhibition at 10 µM worked out at 61.2%. Moreover, the inhibition at 10 µM at p38α MAPK came to 19.7%.

Regarding `CC(C)(C)c1cc(NCC(=O)N/N=C/c2ccc(OCCN3CCOCC3)cc2)n(-c2ccccc2)n1` [Compound 4d, (E)-2-(3-tert-butyl-1-phenyl-1H-pyrazol-5-ylamino)-N’-(4-(2-morpholinoethoxy)benzylidene)acetohydrazide], the melting point turned out to be 158 °C. In [1], this molecule showed a viability at 20 h, 3 µM of 100% and a viability at 20 h, 10 µM of 100%. Further, the inhibition at 10 µM in the data set with TNF-α production was determined as 52.5%. For the same molecule, on p38α MAPK, the inhibition at 10 µM came to 16.4%.

In data set [1], `CC(C)(C)c1cc(NCC(=O)N/N=C/c2ccc(O)cc2)n(-c2ccccc2)n1` [Compound 4e, (E)-2-(3-tert-butyl-1-phenyl-1H-pyrazol-5-ylamino)-N’-(4-hydroxybenzylidene)acetohydrazide] came in with a viability at 20 h, 3 µM of 100% and a viability at 20 h, 10 µM of 97.8%. Further, the inhibition at 10 µM with TNF-α production worked out at 8.1%. Besides, on p38α MAPK, the inhibition at 10 µM was around 30%.

As to `CC(C)(C)c1cc(NCC(=O)N/N=C/c2ccc(Cl)cc2)n(-c2ccccc2)n1` [Compound 4f, (E)-2-(3-tert-butyl-1-phenyl-1H-pyrazol-5-ylamino)-N’-(4-chlorobenzylidene)acetohydrazide], in data set [1], the viability at 20 h, 3 µM stood at 100% and the viability at 20 h, 10 µM stood at 46.6%. For the same molecule, in the data set with TNF-α production, the IC50 was determined as 1.6 µM and the inhibition at 10 µM came out at 93.2%. Besides, the “% Recovered amount after 60 min, rat plasma” value in the data set “Rat plasma stability” came out at 13.3%. Also, in data set [2], the “% Recovered amount after 60 min, rat liver microsomes” value was 86.7%. On p38α MAPK, the inhibition at 10 µM is 15.3%. The “Anti-hypernociceptive effect (in words)” value in data set [3] is given as “comparable to SB-203580; also recorded: partially inhibit this response”. Also, in data set [5], the “Suppression of the elevation of tissue TNF-α level” value was determined as 55.8%.

As for `CC(C)(C)c1cc(NCC(=O)N/N=C/c2ccccc2)n(-c2ccccc2)n1` [Compound 4g, (E)-N’-benzylidene-2-(3-tert-butyl-1-phenyl-1H-pyrazol-5-ylamino)acetohydrazide], in data set [1], the viability at 20 h, 3 µM was found to be 100% and the viability at 20 h, 10 µM stood at 99.8%. Besides, in the data set on TNF-α production, the inhibition at 10 µM worked out at 50.4%. For the same molecule, the inhibition at 10 µM on p38α MAPK amounted to 19.5%.

As to `CC(C)=NNC(=O)CNc1cc(C(C)(C)C)nn1-c1ccccc1` [Compound 9, 2-(3-tert-butyl-1-phenyl-1H-pyrazol-5-ylamino)-N’-(propan-2-ylidene)acetohydrazide], the melting point is 181 to 183 °C.

Consider `CN(CC(=O)N/N=C/c1ccccc1)c1cc(C(C)(C)C)nn1-c1ccccc1` [Compound 15, (E)-N’-benzylidene-2-((3-tert-butyl-1-phenyl-1H-pyrazol-5-yl)(methyl)amino)acetohydrazide], for which the melting point was 156 to 158 °C.

Consider `C[S+]([O-])c1ccc(-c2nc(-c3ccncc3)c(-c3ccc(F)cc3)[nH]2)cc1` (centres unmarked) [SB-203580 (1), SB-203580, reference compound], for which, in [1], the viability at 20 h, 3 µM was 100% and the viability at 20 h, 10 µM stood at 44.3%. In addition, in the data set with TNF-α production, the inhibition at 10 µM amounted to 90%.
